# Assay results as given in patent US11065231B2, “Compounds and methods for the targeted degradation of interleukin-1 receptor- associated kinase 4 polypeptides” (Arvinas Operations, Inc., priority 2017, dated 2021).
# Read-outs that look alike come from different tables or passages of the source.
# Key:
# IRAK4 [1] = target: T1, IRAK4 (Homo sapiens (Human), UniProt Q9NWZ3); assay: Biochemical Z'-Lyte FRET assay for IRAK4 kinase inhibition; settings: 2 nM enzyme, 1 mM ATP, 2 μM substrate
# Protocol: Biochemical Assay for IRAK4 Kinase Inhibition.
# A Z′-Lyte assay based on a fluorescence resonance energy transfer (FRET) readout was developed for measuring IRAK4-dependent phosphorylation of a FRET-peptide substrate as described by Thermo Fisher Scientific (Grand Island, N.Y.). At a starting concentration of 1.5 mM, the identified compounds were serially diluted with 100% dimethyl sulfoxide (DMSO) in 3-fold increments, into Greiner bio-one 96-well plates (cat. #: 650201, Greiner bio-one, Monroe, N.C.). Compounds were then transferred to intermediate Greiner bio-one 96-well plates and diluted 10-fold with Kinase assay buffer (25 mM HEPES, pH 7.5, 10 mM MgCl2, 10 mM MnCl2, 1 mM EGTA, and 0.01% Brij-35, 2 mM DTT). Three μL of the serially diluted compounds were then transferred in duplicate to low-volume 384-well black proxiplates (cat. #: 6008269; Perkin Elmer, Akron, Ohio), to give duplicate twelve-point concentration curves. Six μl of a 2.5× solution of IRAK4 enzyme (cat #: 40064, BPS Bioscience, San Diego, Calif.) in kinase buffer was added to each well, followed by a 10 minutes pre-incubation step. Reactions were initiated by adding 6 μl of a 2.5× substrate mix of ATP and Z′-Lyte Ser/Thr 7 peptide (cat. #: PV3180, Thermo Fisher Scientific, Grand Island, N.Y.) and proceeded at room temperature for 1 hour. The final concentration of key reagents in the 15 uL kinase reactions were 2 μM substrate, 2 nM enzyme, and 1 mM ATP, with dose responses starting at 30 μM compound. At the end of the kinase reactions, 5 μl of developing solution (as instructed in for cat. #: PV3180, Thermo Fisher Scientific, Grand Island, N.Y.) was added to each well and incubated at room temperature for 1 hour. All wells were read on an Envision 2105 Multilabel fluorescence plate reader (Perkin Elmer, Waltham, Mass.) at 400 nm excitation and 460 nm/530 nm emission. Plus and minus 100% inhibition controls were used to calculate percent inhibition and IC50 curves were generated using Graphpad Prism (La Jolla, Calif.).
# IRAK4 [2] = target: T1, IRAK4; assay: Western blot assay for assessing degradation of IRAK4 in MCF7 cells; format: cell-based; settings: for Dmax: read-out: IRAK4 Dmax (%)
# Protocol: Western Blot Assay for Assessing Degradation of IRAK4.
# MCF7 cells, purchased from ATCC (Manassas, Va.), were used at a passage range of 2-19. Cells were seeded at 50% confluency in 96-well plates at 180 μl/well in cell media (Dulbecco's Modified Eagle medium/nutrient F-12 Ham-10% Fetal Bovine Serum) and incubated overnight. The next morning, compounds were serially diluted and added (20 μl into 180 μl media) at a final DMSO concentration of 0.1%. Cells were rinsed with cell media and replaced with compounds in media, followed by incubation overnight. After a 24 hour incubation with compound, cell were harvested (90-100% confluent at harvest). Cells were then washed once with 100 μl of Dulbecco's hosphate-buffered saline and then lysed with 40 μl of lysis buffer (1×RIPA+HALT protease inhibitor+HALT phosphatase inhibitor) on ice for 10 minutes. Lysates were then cleaned by filtration in 1.2 µm filter plates followed by western blotting. For each sample, 30 μl of lysate were added to 10 μl of 4×LDS sample buffer, then denatured at 95° C. for 5 minutes in the thermal cycler and placed on ice. Fifteen μL of each sample were then loaded on 4-15% Tris/Glycine gels and run for 25 minutes at 250 (constant) volts in 1× Tris/Glycine buffer. Protein was transferred from gels to nitrocellulose using a BioRad Turbo dry-transfer unit with the Turbo/midi default program. All blots were rinsed with ddH2O and blocked for 1 hour at room temperature in 5% bovine serum albumin (BSA) in tris-buffered saline-Tween 20 (TBS-T) (0.1%) on rocker. Blots were exposed to primary antibody in 5% BSA in TBS-T (0.1%) overnight at 4° C. on rocker. Primary antibodies, diluted 1:1000 in […], were as follows: anti-IRAK4 (cat. #: ab119942, Abcam, Cambridge, Mass.), anti-IRAK1 (cat. #: CST 4504S, Cell Signaling Technology, Danvers, Mass.), and anti-Beta-actin (Cat. #: ab8227, Abcam, Cambridge, Mass.). Blots were then washed with TBS-T (0.1%) three times for 5 minutes on a rocker at room temperature. Secondary antibody (1:18,000 anti-rabbit-HRP and/or anti-mouse-HRP in 5% BSA in TBST (0.1%) was then added, and blots incubated at room temperature rocker for 1 hour. Blots were washed 3 times in TBS-T (0.1%) for 5 minutes at room temperature on the rocker. Signal was developed with Femto Max substrate for 5 minutes and blots read on a ChemiDoc. Percent degradation was assessed by comparing IRAK4 signal in compound vs. DMSO treated lysates.
# [3] = Table 5, IRAK4 degradation, 24 hour incubation, read-out: IRAK4 DC50
# [4] = Table 5, IRAK4 degradation, 24 hour incubation
# T1 sequence (Q9NWZ3 whole entry): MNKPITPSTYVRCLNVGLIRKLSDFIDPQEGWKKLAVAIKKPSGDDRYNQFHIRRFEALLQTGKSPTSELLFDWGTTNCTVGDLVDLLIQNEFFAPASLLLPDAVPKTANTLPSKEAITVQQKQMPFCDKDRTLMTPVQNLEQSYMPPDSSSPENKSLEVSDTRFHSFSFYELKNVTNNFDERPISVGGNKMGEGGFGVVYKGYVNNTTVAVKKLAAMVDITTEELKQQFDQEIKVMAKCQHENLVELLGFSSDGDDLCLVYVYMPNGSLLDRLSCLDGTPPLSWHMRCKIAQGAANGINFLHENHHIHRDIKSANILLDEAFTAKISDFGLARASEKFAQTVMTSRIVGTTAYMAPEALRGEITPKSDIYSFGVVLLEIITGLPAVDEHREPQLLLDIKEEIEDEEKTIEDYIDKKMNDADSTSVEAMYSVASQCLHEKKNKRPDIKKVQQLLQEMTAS
IC50 (IRAK4 [1]),DC50 (IRAK4 [2]; [3]),"DC50 (IRAK4 [2]; Table 1, 24 hours, read-out: IRAK4 by western DC50)","DC50 (IRAK4 [2]; western blot, 24 hour incubation, read-out: DC50 (IRAK4 degradation))",Dmax (IRAK4 [2]; [4]),Structure (SMILES)
< 30 nM,≥ 1000 nM,,,,"Cc1ncsc1-c1ccc(CNC(=O)[C@@H]2C[C@@H](O)CN2C(=O)[C@@H](NC(=O)COCCOCCOCCOCCN2CCN(Cc3ccc4c(c3)nc(NC(=O)c3cccc(C(F)(F)F)c3)n4C3CCC(CO)CC3)CC2)C(C)(C)C)cc1 (mixture of isomers) [compound 14, (2S,4R)-1-((S)-2-(tert-butyl)-17-(4-((1-((1SR,4SR)-4-(hydroxymethyl)cyclohexyl)-2-(3-(trifluoromethyl)benzamido)-1H-benzo[d]imidazol-5-yl)methyl)piperazin-1-yl)-4-oxo-6,9,12-tetraoxa-3-azatetradecanoyl)-4-hydroxy-N-(4-(4-methylthiazol-5-yl)benzyl)pyrrolidine-2-carboxamide]"
< 30 nM,100 to 300 nM,,,,"O=C1CCC(N2C(=O)c3ccc(OCCN4CCN(Cc5ccc6c(c5)nc(NC(=O)c5cccc(C(F)(F)F)c5)n6[C@H]5CC[C@@H](CO)CC5)CC4)cc3C2=O)C(=O)N1 (some centres unmarked) [compound 1, N-(5-((4-(2-((2-(2,6-dioxopiperidin-3-yl)-1,3-dioxoisoindolin-5-yl)oxy)ethyl)piperazin-1-yl)methyl)-1-((1s,4s)-4-(hydroxymethyl)cyclohexyl)-1H-benzo[d]imidazol-2-yl)-3-(trifluoromethyl)benzamide]"
< 30 nM,< 30 nM,10 nM,9.7 nM,,"O=C1CCC(N2C(=O)c3ccc(OCCOCCN4CCN(Cc5ccc6c(c5)nc(NC(=O)c5cccc(C(F)(F)F)c5)n6[C@H]5CC[C@@H](CO)CC5)CC4)cc3C2=O)C(=O)N1 (some centres unmarked) [compound 2, N-(5-((4-(2-(2-((2-(2,6-dioxopiperidin-3-yl)-1,3-dioxoisoindolin-5-yl)oxy)ethoxy)ethyl)piperazin-1-yl)methyl)-1-((1s,4s)-4-(hydroxymethyl)cyclohexyl)-1H-benzo[d]imidazol-2-yl)-3-(trifluoromethyl)benzamide]"
< 30 nM,≥ 1000 nM,,,,"O=C1CCC(N2Cc3cc(OCCOCCN4CCN(Cc5ccc6c(c5)nc(NC(=O)c5cccc(C(F)(F)F)c5)n6[C@H]5CC[C@@H](CO)CC5)CC4)ccc3C2=O)C(=O)N1 (some centres unmarked) [compound 6, N-(5-((4-(2-(2-((2-(2,6-dioxopiperidin-3-yl)-1-oxoisoindolin-5-yl)oxy)ethoxy)ethyl)piperazin-1-yl)methyl)-1-((1s,4s)-4-(hydroxymethyl)cyclohexyl)-1H-benzo[d]imidazol-2-yl)-3-(trifluoromethyl)benzamide]"
100 to 300 nM,≥ 1000 nM,,,30 to 50%,"CC1CCC(n2c(NC(=O)c3cccc(C(F)(F)F)c3)nc3cc(CN4CCN(CCOCCOc5ccc6c(c5)C(=O)N(C5CCC(=O)NC5=O)C6=O)CC4)ccc32)CC1 (centres unmarked) [compound 7, N-(5-((4-(2-(2-((2-(2,6-dioxopiperidin-3-yl)-1,3-dioxoisoindolin-5-yl)oxy)ethoxy)ethyl)piperazin-1-yl)methyl)-1-((1s,4s)-4-methylcyclohexyl)-1H-benzo[d]imidazol-2-yl)-3-(trifluoromethyl)benzamide]"
< 30 nM,< 30 nM,,,> 70%,"O=C1CCC(N2C(=O)c3ccc(N4CCC(CN5CCN(Cc6ccc7c(c6)nc(NC(=O)c6cccc(C(F)(F)F)c6)n7[C@H]6CC[C@@H](CO)CC6)CC5)CC4)cc3C2=O)C(=O)N1 (some centres unmarked) [compound 9, N-(5-((4-((1-(2-(2,6-dioxopiperidin-3-yl)-1,3-dioxoisoindolin-5-yl)piperazin-4-yl)methyl)piperzin-1-yl)methyl)-1-((1s,4s)-4-(hydroxymethyl)cyclohexyl)-1H-benzo[d]imidazol-2-yl)-3-(trifluoromethyl)benzamide]"
< 30 nM,30 to 100 nM,,,,O=C1CCC(N2C(=O)c3ccc(OCCN4CCC(CN5CCN(Cc6ccc7c(c6)nc(NC(=O)c6cccc(C(F)(F)F)c6)n7[C@H]6CC[C@@H](CO)CC6)CC5)CC4)cc3C2=O)C(=O)N1 (some centres unmarked) [compound 10]
30 to 100 nM,≥ 1000 nM,,,,"Cc1ccc(-n2nc(N3CCN(CCOCCOCCOc4ccc5c(c4)C(=O)N(C4CCC(=O)NC4=O)C5=O)CC3)cc2NC(=O)c2cnn3cccnc23)nc1 (centres unmarked) [compound 25, N-(3-(4-(2-(2-(2-((2-(2,6-dioxopiperidin-3-yl)-1,3-dioxoisoindolin-5-yl)oxy)ethoxy)ethoxy)ethyl)piperazin-1-yl)-1-(5-methylpyridin-2-yl)-1H-pyrazol-5-yl)pyrazolo[1,5-a]pyrimidine-3-caboxamide]"
300 to 1000 nM,≥ 1000 nM,,,,"Cc1ccc(-n2nc(N3CCN(CCOCCOCCOCCOc4ccc5c(c4)C(=O)N(C4CCC(=O)NC4=O)C5=O)CC3)cc2NC(=O)c2cnn3cccnc23)nc1 (centres unmarked) [compound 26, N-(3-(4-(2-(2-(2-(2-((2-(2,6-dioxopiperidin-3-yl)-1,3-dioxoisoindolin-5-yl)oxy)ethoxy)ethoxy)ethoxy)ethyl)piperazin-1-yl)-1-(5-methylpyridin-2-yl)-1H-pyrazol-5-yl)pyrazolo[1,5-a]pyrimidine-3-caboxamide]"
300 to 1000 nM,≥ 1000 nM,,,,"Cc1ccc(-n2nc(N3CCN(CCOCCOCCOCC(=O)N[C@H](C(=O)N4C[C@H](O)C[C@H]4C(=O)NCc4ccc(-c5scnc5C)cc4)C(C)(C)C)CC3)cc2NC(=O)c2cnn3cccnc23)nc1 [compound 27, N-(3-(4-((S)-13-((2S,4R)-4-hydroxy-2-((4-(4-methylthiazol-5-yl)benzyl)carbamoyl)pyrrolidine-1-carbonyl)-14,14-dimethyl-11-oxo-3,6,9-trioxa-12-azapentadecyl)piperazin-1-yl)-1-(5-methylpyridin-2-yl)-1H-pyrazol-5-yl)pyrazolo[1,5-a]pyrimidine-3-carboxamide]"
300 to 1000 nM,≥ 1000 nM,,,,"Cc1ccc(-n2nc(N3CCN(CCOCCOCCOCCOCC(=O)N[C@H](C(=O)N4C[C@H](O)C[C@H]4C(=O)NCc4ccc(-c5scnc5C)cc4)C(C)(C)C)CC3)cc2NC(=O)c2cnn3cccnc23)nc1 [compound 28, N-(3-(4-((S)-16-((2S,4R)-4-hydroxy-2-((4-(4-methylthiazol-5-yl)benzyl)carbamoyl)pyrrolidine-1-carbonyl)-17,17-dimethyl-14-oxo-3,6,9,12-tetraoxa-15-azapentadecyl)piperazin-1-yl)-1-(5-methylpyridin-2-yl)-1H-pyrazol-5-yl)pyrazolo[1,5-a]pyrimidine-3-carboxamide]"
300 to 1000 nM,≥ 1000 nM,,,,N#Cc1ccc2ncnc(N[C@H]3CC[C@H](N4CCN(CCOc5ccc6c(c5)C(=O)N(C5CCC(=O)NC5=O)C6=O)CC4)CC3)c2c1 (some centres unmarked) [compound 29]
300 to 1000 nM,≥ 1000 nM,,,,N#Cc1ccc2ncnc(N[C@H]3CC[C@H](N4CCN(CCOCCOc5ccc6c(c5)C(=O)N(C5CCC(=O)NC5=O)C6=O)CC4)CC3)c2c1 (some centres unmarked) [compound 30]
≥ 1000 nM,≥ 1000 nM,,,,N#Cc1ccc2ncnc(N[C@H]3CC[C@H](N4CCN(CCOCCOCCOc5ccc6c(c5)C(=O)N(C5CCC(=O)NC5=O)C6=O)CC4)CC3)c2c1 (some centres unmarked) [compound 31]
